Values after ≈ are worked out from the molar mass of the structure shown.
What was measured:
Type in all cases: physicochemical
[1] = Hygroscopicity by dynamic vapor sorption (DVS); conditions: for Hygroscopicity (in words): 25° C./80% RH; for Weight gain under 80% Relative Humidity: DVS, 25° C., 80% RH
Description: Dynamic vapor sorption (DVS) was applied to test hygroscopicity of Form CS1, Form CS9 and the prior art solid with about 10 mg of samples under 25 °C. The DVS plots of Form CS1, Form CS9 and the prior art solid are substantially as depicted in FIG. 10, FIG. 11 and FIG. 12.

[2] = Physical stability of drug substance on storage (XRPD before/after); conditions: for Solid form after storage: 3 months, XRPD; for Time for which crystalline form of drug substance doesn't change on storage: 40° C./75% RH and 60° C./75% RH
Description: Form CS1 was stored under different conditions of 25° C./60% RH, 40° C./75% RH and 60° C./75% RH. The XRPD pattern overlay before and after being stored is substantially as depicted in FIG. 13, FIG. 14 and FIG. 15.
Form CS9 was stored under different conditions of 25° C./60% RH, 40° C./75% RH and 60° C./75% RH. The XRPD pattern overlay before and after being stored is substantially as depicted in FIG. 16, FIG. 17 and FIG. 18.

[3] = Kinetic solubility in SGF, FeSSIF, FaSSIF and pure water (HPLC); conditions: for Solubility (in words): SGF, FeSSIF, FaSSIF and pure water
Text: Solubility test method according to the Chinese Pharmacopoeia was used and different pHs of different organs in human body were considered. According to the above two references, a solvent media set with four pH values range from 1.2 to 7.5 were designed in the present disclosure. Specifically: SGF (Simulated gastric fluids, pH=1.8), FeSSIF (Fed state simulated intestinal fluids, pH=5.0), FaSSIF (Fasted state simulated intestinal fluids, pH=6.5), and pure water were used.
Form CS1 and Form CS9 of the present disclosure were suspended into SGF, FeSSIF, FaSSIF and H2O to obtain saturated solutions. The solutions were sampled at fixed time points. Concentrations of the saturated solutions were measured by HPLC to measure the kinetic solubility of Form CS1 and Form CS9.

[4] = Flowability by compressibility index (USP 1174); conditions: for Bulk density: 5 mL measuring cylinder, before tapping; for Tapped density: 500 taps; for Compressibility index: (Tapped Density−Bulk Density)/Tapped Density×100%; for Flowability: scale of USP 1174 by compressibility index
Description: According to the United States Pharmacopeia (USP) 1174, flowability of Form CS1 and Form CS9 of the present disclosure were evaluated by the compressibility index. The bulk density, tapped density of Form CS1 and Form CS9 were tested, and compressibility index was calculated.
1. Test Method • Samples: Form CS1 and Form CS9 • Instrument: Tap density tester • Utensil: 5 mL measuring cylinder • Number of tapping: 500 times • Bulk density=m/vQ (Mass/volume before tapping) • Tapped density=m/vt (Mass/volume after tapping)
2. Calculation Formula: Compressibility Index (%)=(Tapped Density−Bulk Density)/Tapped Density×100%

[5] = In vitro dissolution of tablets (Chinese Pharmacopoeia 2015 <0931>, paddle); conditions: tablet, pH=6.8 phosphate buffer + 1% SDS, 37° C., 75 rpm
Description: (§1) Form CS1 or Form CS9 of GSK1278863, microcrystalline cellulose, croscarmellose sodium and magnesium stearate were weighed according to formulation in Table 14 and blended for 2 minutes. The tablets were prepared using a manual tablet press at 5 KN±1 KN pressure with a φ7 mm round tooling. The tablets tablet weight is 100 mg±1 mg. The obtained tablets were packed in 35 cc HDPE bottles (one tablet per bottle) with 1 g desiccant. The bottles were sealed with a sealer.
In vitro dissolution test was performed on obtained tablets and dissolution method according to Chinese Pharmacopoeia 2015<0931> was used. The conditions are as follows:
Medium: pH=6.8 phosphate buffer solution+1% sodium dodecyl sulfate aqueous solution

[6] = Stability of crystalline form in drug products (tablets); conditions: for Crystalline form before and after formulation process (in words): blending and tableting at 5 KN±1 KN; for Crystalline form of drug substance in the drug products after storage (in words): tablets, 40° C., 1 month
Description: as §1
The above obtained tablets were stored under 40° C./[…] condition for 1 month. […] The results are shown in Table 16, which indicate that Form CS1 and Form CS9 have good stability in the drug products.

Structure (SMILES) | Hygroscopicity (in words) [1] | Weight gain under 80% Relative Humidity [1] | Solid form after storage ([2]; 25° C./60% RH) | Time for which crystalline form of drug substance doesn't change on storage ([2]; 25° C./60% RH) | Solid form after storage ([2]; 40° C./75% RH) | Solid form after storage ([2]; 60° C./75% RH) | Kinetic solubility ([3]; FaSSIF (pH=6.5), 24 h) | Kinetic solubility ([3]; H2O, 24 h) | Kinetic solubility ([3]; SGF (pH=1.8), 24 h) | Solubility (in words) [3] | Bulk density [4] | Tapped density [4] | Compressibility index [4] | Flowability [4] | Crystalline form before and after formulation process (in words) [6] | Crystalline form of drug substance in the drug products after storage (in words) [6] | further results
O=C(O)CNC(=O)C1C(=O)N(C2CCCCC2)C(=O)N(C2CCCCC2)C1=O [Form CS1] | not hygroscopic | 0.53% | Form CS1 | at least 3 months | Form CS1 | Form CS1 | 27 µg/mL | 16 µg/mL | 3 µg/mL | good solubility | 0.15 g/mL | 0.19 g/mL | 21% | Passable (21%-25%, passable flowability) | doesn't change | does not change | solubility kinetic at 1 h ([3]; FaSSIF (fasted state simulated intestinal fluid), pH 6.5, fassif, thermodynamic from solid, FaSSIF (pH=6.5), 1 h): 63 µg/mL (≈ 160 µM); solubility kinetic at 4 h ([3]; FaSSIF (fasted state simulated intestinal fluid), pH 6.5, fassif, thermodynamic from solid, FaSSIF (pH=6.5), 4 h): 50 µg/mL (≈ 127 µM); solubility kinetic at 1 h ([3]; FeSSIF (fed state simulated intestinal fluid), pH 5, fessif, thermodynamic from solid, FeSSIF (pH=5.0), 1 h): 190 µg/mL (≈ 483 µM); solubility kinetic at 4 h ([3]; FeSSIF (fed state simulated intestinal fluid), pH 5, fessif, thermodynamic from solid, FeSSIF (pH=5.0), 4 h): 190 µg/mL (≈ 483 µM); solubility kinetic at 24 h ([3]; FeSSIF (fed state simulated intestinal fluid), pH 5, fessif, thermodynamic from solid, FeSSIF (pH=5.0), 24 h): 160 µg/mL (≈ 407 µM); solubility kinetic at 1 h ([3]; SGF (simulated gastric fluid), pH 1.8, simulated gastric fluid, thermodynamic from solid, SGF (pH=1.8), 1 h): 3.1 µg/mL (≈ 7.88 µM); solubility kinetic at 4 h ([3]; SGF (simulated gastric fluid), pH 1.8, simulated gastric fluid, thermodynamic from solid, SGF (pH=1.8), 4 h): 3.1 µg/mL (≈ 7.88 µM); solubility kinetic at 1 h ([3]; pure water, water, thermodynamic from solid, H2O, 1 h): 14 µg/mL (≈ 35.6 µM); solubility kinetic at 4 h ([3]; pure water, water, thermodynamic from solid, H2O, 4 h): 26 µg/mL (≈ 66.1 µM); Cumulative drug release ([5]; 5 min): 0.0%; Cumulative drug release ([5]; 10 min): 67.7%; Cumulative drug release ([5]; 20 min): 75.8%; Cumulative drug release ([5]; 30 min): 84.8%; Cumulative drug release ([5]; 45 min): 90.1%; Cumulative drug release ([5]; 60 min): 95.2%; Cumulative drug release ([5]; 90 min): 98.3%; Cumulative drug release ([5]; 120 min): 102.5%
O=C(O)CNC(=O)C1C(=O)N(C2CCCCC2)C(=O)N(C2CCCCC2)C1=O [Form CS9] | not hygroscopic | 0.22% | Form CS9 | at least 3 months | Form CS9 | Form CS9 | 81 µg/mL | 60 µg/mL | 9.3 µg/mL | good solubility | 0.11 g/mL | 0.14 g/mL | 21% | Passable (21%-25%, passable flowability) | doesn't change | does not change | Kinetic solubility ([3]; FaSSIF (pH=6.5), 1 h): 58 µg/mL; Kinetic solubility ([3]; FaSSIF (pH=6.5), 4 h): 81 µg/mL; Kinetic solubility ([3]; FeSSIF (pH=5.0), 1 h): 150 µg/mL; Kinetic solubility ([3]; FeSSIF (pH=5.0), 4 h): 170 µg/mL; Kinetic solubility ([3]; FeSSIF (pH=5.0), 24 h): 140 µg/mL; Kinetic solubility ([3]; H2O, 1 h): 20 µg/mL; Kinetic solubility ([3]; H2O, 4 h): 38 µg/mL; Kinetic solubility ([3]; SGF (pH=1.8), 1 h): 3.9 µg/mL; Kinetic solubility ([3]; SGF (pH=1.8), 4 h): 4.2 µg/mL
O=C(O)CNC(=O)C1C(=O)N(C2CCCCC2)C(=O)N(C2CCCCC2)C1=O [The prior art solid, reference compound] | higher hygroscopicity | 1.14% | – | – | – | – | – | – | – | – | – | – | – | – | – | – | Weight gain under 80% Relative Humidity ([1]; listed as prior art solid): 1.14%

Reference: patent US11117871B2, “Crystalline forms of GSK1278863, preparation method and pharmaceutical use thereof” (GlaxoSmithKline Intellectual Property (No.2) Limited, priority 2017, dated 2021)
